# *1 amine or outer side, *2 acyl side, *3 side chain or, on linkers, in order; H or OH if unused. Where a SMILES comes first, the peptide text is derived from it. Bridges are numbered along the chain shown (N, C = ends). [ ]: non-standard residue; d: D form. The star is where a group is joined. hPhe(3-Cl-4-CF3) = N[C@@H](CCc1ccc(C(F)(F)F)c(Cl)c1)C(=O)O; NPrPhe(4-CF3) = CCCN[C@@H](Cc1ccc(C(F)(F)F)cc1)C(=O)O; NMeAbu(4,4,4-F3) = CN[C@@H](CC(F)(F)F)C(=O)O; X43 = CCCN([C@@H](Cc1ccccc1)C(=O)[*:2])[*:1]; NEtPhe(4-F) = CCN[C@@H](Cc1ccc(F)cc1)C(=O)O; NMePhe(4-F) = CN[C@@H](Cc1ccc(F)cc1)C(=O)O; NMeGly(cPent) = CN[C@H](C(=O)O)C1CCCC1; Pro(4,4-F2) = O=C(O)[C@@H]1CC(F)(F)CN1; NEtPhe = CCN[C@@H](Cc1ccccc1)C(=O)O; NMeGly(cBu) = CN[C@H](C(=O)O)C1CCC1; NMeD = CN[C@@H](CC(=O)O)C(=O)O; NMeL = CN[C@@H](CC(C)C)C(=O)O; NMeNva = CCC[C@H](NC)C(=O)O; NMeAbu = CC[C@H](NC)C(=O)O; Morpholide = C1CN(*)CCO1; NMeA = CN[C@@H](C)C(=O)O; Ac5c = NC1(C(=O)O)CCCC1; Aze = O=C(O)[C@@H]1CCN1; Ac4c = NC1(C(=O)O)CCC1; Sar = CNCC(=O)O
# How the values were obtained:
# [1] = molecular target: GDP-bound NRAS wild-type protein (Homo sapiens, UniProt P01111); assay: Binding to NRAS by surface plasmon resonance (SPR), Single Cycle Kinetics; settings: SPR, GDP-bound NRAS wild-type protein vs GDP-bound KRAS wild-type protein
# [2] = molecular target: GDP-bound HRAS wild-type protein (Homo sapiens, UniProt P01112); assay: Binding to HRAS by surface plasmon resonance (SPR), Single Cycle Kinetics; settings: SPR, GDP-bound HRAS wild-type protein vs GDP-bound KRAS wild-type protein
# [3] = molecular target: GDP-bound KRAS wild-type protein (Homo sapiens, UniProt P01116); assay: Binding to KRAS by surface plasmon resonance (SPR), Single Cycle Kinetics; settings: SPR Single Cycle Kinetics, GDP-bound KRAS wild-type protein, 1:1 binding model; read-out: KRAS KD
# GDP-bound KRAS wild-type protein, sequence (P01116 whole entry): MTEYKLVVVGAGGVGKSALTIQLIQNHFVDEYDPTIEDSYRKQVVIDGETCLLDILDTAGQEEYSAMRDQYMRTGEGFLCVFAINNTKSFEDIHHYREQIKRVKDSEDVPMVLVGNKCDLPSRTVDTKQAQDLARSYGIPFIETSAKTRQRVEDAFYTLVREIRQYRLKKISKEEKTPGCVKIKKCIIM
# GDP-bound NRAS wild-type protein, sequence (P01111 whole entry): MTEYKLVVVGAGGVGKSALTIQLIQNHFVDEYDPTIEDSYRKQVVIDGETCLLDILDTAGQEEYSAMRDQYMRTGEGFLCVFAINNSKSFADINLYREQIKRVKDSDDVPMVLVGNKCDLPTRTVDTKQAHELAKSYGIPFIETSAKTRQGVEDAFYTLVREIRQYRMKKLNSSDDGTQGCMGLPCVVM
# GDP-bound HRAS wild-type protein, sequence (P01112 whole entry): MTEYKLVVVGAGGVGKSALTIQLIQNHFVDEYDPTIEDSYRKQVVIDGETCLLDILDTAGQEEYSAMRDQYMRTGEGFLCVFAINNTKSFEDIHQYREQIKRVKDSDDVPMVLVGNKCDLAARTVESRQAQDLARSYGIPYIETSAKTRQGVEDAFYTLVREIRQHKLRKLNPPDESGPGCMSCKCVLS
SMILES,Kd [3] [nM],NRAS/KRAS (ratio of KD value for NRAS to KD value for KRAS) [1],HRAS/KRAS (ratio of KD value for HRAS to KD value for KRAS) [2]
"CCCN1C(=O)[C@@H]2CCN2C(=O)[C@H](C)N(C)C(=O)[C@H]([C@@H](C)CC)NC(=O)[C@H](C2CCC2)N(C)C(=O)C[C@@H](C(=O)N2CCOCC2)N(C)C(=O)[C@H](C2CCCC2)N(C)C(=O)C2(CCCC2)NC(=O)[C@@H]2CC(F)(F)CN2C(=O)[C@H](CCc2ccc(C(F)(F)F)c(Cl)c2)NC(=O)CN(C)C(=O)[C@@H]1Cc1ccc(C(F)(F)F)cc1 [PP0204] ([NMeGly(cBu)]I[NMeA][Aze][NPrPhe(4-CF3)][Sar][hPhe(3-Cl-4-CF3)][Pro(4,4-F2)][Ac5c][NMeGly(cPent)][NMeD]-Morpholide; lactam N-11)",0.21,C (A compound having a KD ratio of 0.1 or more and less than 3 is denoted as C),C (A compound having a KD ratio of 0.1 or more and less than 3 is denoted as C)
"CCC[C@H]1C(=O)N[C@@H]([C@@H](C)CC)C(=O)N(C)[C@@H](C)C(=O)N2CC[C@H]2C(=O)N(CCC)[C@@H](Cc2ccc(C(F)(F)F)cc2)C(=O)N(C)CC(=O)N[C@@H](CCc2ccc(C(F)(F)F)c(Cl)c2)C(=O)N2CC(F)(F)C[C@H]2C(=O)NC2(CCCC2)C(=O)N(C)[C@@H](C2CCCC2)C(=O)N(C)[C@H](C(=O)N2CCOCC2)CC(=O)N1C [PP0205] ([NMeNva]I[NMeA][Aze][NPrPhe(4-CF3)][Sar][hPhe(3-Cl-4-CF3)][Pro(4,4-F2)][Ac5c][NMeGly(cPent)][NMeD]-Morpholide; lactam N-11)",0.11,C (A compound having a KD ratio of 0.1 or more and less than 3 is denoted as C),C (A compound having a KD ratio of 0.1 or more and less than 3 is denoted as C)
"CCCN1C(=O)[C@@H]2CCN2C(=O)[C@H](C)N(C)C(=O)[C@H]([C@@H](C)CC)NC(=O)[C@H](CC(C)C)N(C)C(=O)C[C@@H](C(=O)N2CCOCC2)N(C)C(=O)[C@H](C2CCCC2)N(C)C(=O)C2(CCC2)NC(=O)[C@@H]2CC(F)(F)CN2C(=O)[C@H](CCc2ccc(C(F)(F)F)c(Cl)c2)NC(=O)CN(C)C(=O)[C@@H]1Cc1ccc(C(F)(F)F)cc1 [PP0208] ([NMeL]I[NMeA][Aze][NPrPhe(4-CF3)][Sar][hPhe(3-Cl-4-CF3)][Pro(4,4-F2)][Ac4c][NMeGly(cPent)][NMeD]-Morpholide; lactam N-11)",0.26,C (A compound having a KD ratio of 0.1 or more and less than 3 is denoted as C),C (A compound having a KD ratio of 0.1 or more and less than 3 is denoted as C)
CC[C@H](C)[C@@H]1NC(=O)[C@H](CC(C)C)N(C)C(=O)C[C@@H](C(=O)N2CCOCC2)N(C)C(=O)[C@H](C2CCCC2)N(C)C(=O)C2(CCCC2)NC(=O)[C@@H]2CCCN2C(=O)[C@H](CCc2ccc(C(F)(F)F)c(Cl)c2)NC(=O)CN(C)C(=O)[C@H](Cc2ccccc2)N(CC)C(=O)CN(C)C(=O)CN(C)C1=O [PP0210] ([NMeL]I[Sar][Sar][NEtPhe][Sar][hPhe(3-Cl-4-CF3)]P[Ac5c][NMeGly(cPent)][NMeD]-Morpholide; lactam N-11),0.52,C (A compound having a KD ratio of 0.1 or more and less than 3 is denoted as C),C (A compound having a KD ratio of 0.1 or more and less than 3 is denoted as C)
CCCN1C(=O)CN(C)C(=O)CN(C)C(=O)[C@H]([C@@H](C)CC)NC(=O)[C@H](CC(C)C)N(C)C(=O)C[C@@H](C(=O)N2CCOCC2)N(C)C(=O)[C@H](C2CCCC2)N(C)C(=O)C2(CCCC2)NC(=O)[C@@H]2CCCN2C(=O)[C@H](CCc2ccc(C(F)(F)F)c(Cl)c2)NC(=O)CN(C)C(=O)[C@@H]1Cc1ccccc1 [PP0211] ([NMeL]I[Sar][Sar][X43][Sar][hPhe(3-Cl-4-CF3)]P[Ac5c][NMeGly(cPent)][NMeD]-Morpholide; lactam N-11),0.27,B (a compound having 3 or more and less than 10 is denoted as B),C (A compound having a KD ratio of 0.1 or more and less than 3 is denoted as C)
CC[C@H](C)[C@@H]1NC(=O)[C@H](CC(C)C)N(C)C(=O)C[C@@H](C(=O)N2CCOCC2)N(C)C(=O)[C@H](C2CCCC2)N(C)C(=O)C2(CCCC2)NC(=O)[C@@H]2CCCN2C(=O)[C@H](CCc2ccc(C(F)(F)F)c(Cl)c2)NC(=O)CN(C)C(=O)[C@H](Cc2ccc(F)cc2)N(CC)C(=O)CN(C)C(=O)CN(C)C1=O [PP0213] ([NMeL]I[Sar][Sar][NEtPhe(4-F)][Sar][hPhe(3-Cl-4-CF3)]P[Ac5c][NMeGly(cPent)][NMeD]-Morpholide; lactam N-11),0.25,C (A compound having a KD ratio of 0.1 or more and less than 3 is denoted as C),C (A compound having a KD ratio of 0.1 or more and less than 3 is denoted as C)

# Compounds with a lower Kd [3], results first:
Kd [3] [nM],SMILES,NRAS/KRAS (ratio of KD value for NRAS to KD value for KRAS) [1],HRAS/KRAS (ratio of KD value for HRAS to KD value for KRAS) [2]
0.098,CC[C@H](C)[C@@H]1NC(=O)[C@H](CC(C)C)N(C)C(=O)C[C@@H](C(=O)N2CCOCC2)N(C)C(=O)[C@H](C2CCCC2)N(C)C(=O)C2(CCCC2)NC(=O)[C@@H]2CCCN2C(=O)[C@H](CCc2ccc(C(F)(F)F)c(Cl)c2)NC(=O)CN(C)C(=O)[C@H](Cc2ccc(F)cc2)N(C)C(=O)CN(C)C(=O)CN(C)C1=O [PP0212] ([NMeL]I[Sar][Sar][NMePhe(4-F)][Sar][hPhe(3-Cl-4-CF3)]P[Ac5c][NMeGly(cPent)][NMeD]-Morpholide; lactam N-11),C (A compound having a KD ratio of 0.1 or more and less than 3 is denoted as C),C (A compound having a KD ratio of 0.1 or more and less than 3 is denoted as C)
0.094,"CCCN1C(=O)[C@@H]2CCN2C(=O)[C@H](C)N(C)C(=O)[C@H]([C@@H](C)CC)NC(=O)[C@H](CC(F)(F)F)N(C)C(=O)C[C@@H](C(=O)N2CCOCC2)N(C)C(=O)[C@H](C2CCCC2)N(C)C(=O)C2(CCCC2)NC(=O)[C@@H]2CC(F)(F)CN2C(=O)[C@H](CCc2ccc(C(F)(F)F)c(Cl)c2)NC(=O)CN(C)C(=O)[C@@H]1Cc1ccc(C(F)(F)F)cc1 [PP0203] ([NMeAbu(4,4,4-F3)]I[NMeA][Aze][NPrPhe(4-CF3)][Sar][hPhe(3-Cl-4-CF3)][Pro(4,4-F2)][Ac5c][NMeGly(cPent)][NMeD]-Morpholide; lactam N-11)",C (A compound having a KD ratio of 0.1 or more and less than 3 is denoted as C),C (A compound having a KD ratio of 0.1 or more and less than 3 is denoted as C)
0.076,"CCCN1C(=O)CN(C)C(=O)CN(C)C(=O)[C@H]([C@@H](C)CC)NC(=O)[C@H](CC)N(C)C(=O)C[C@@H](C(=O)N2CCOCC2)N(C)C(=O)[C@H](C2CCCC2)N(C)C(=O)C2(CCCC2)NC(=O)[C@@H]2CC(F)(F)CN2C(=O)[C@H](CCc2ccc(C(F)(F)F)c(Cl)c2)NC(=O)CN(C)C(=O)[C@@H]1Cc1ccc(C(F)(F)F)cc1 [PP0202] ([NMeAbu]I[Sar][Sar][NPrPhe(4-CF3)][Sar][hPhe(3-Cl-4-CF3)][Pro(4,4-F2)][Ac5c][NMeGly(cPent)][NMeD]-Morpholide; lactam N-11)",B (a compound having 3 or more and less than 10 is denoted as B),C (A compound having a KD ratio of 0.1 or more and less than 3 is denoted as C)
0.071,"CCCN1C(=O)[C@@H]2CCN2C(=O)[C@H](C)N(C)C(=O)[C@H]([C@@H](C)CC)NC(=O)[C@H](CC)N(C)C(=O)C[C@@H](C(=O)N2CCOCC2)N(C)C(=O)[C@H](C2CCCC2)N(C)C(=O)C2(CCCC2)NC(=O)[C@@H]2CC(F)(F)CN2C(=O)[C@H](CCc2ccc(C(F)(F)F)c(Cl)c2)NC(=O)CN(C)C(=O)[C@@H]1Cc1ccc(C(F)(F)F)cc1 [PP0206] ([NMeAbu]I[NMeA][Aze][NPrPhe(4-CF3)][Sar][hPhe(3-Cl-4-CF3)][Pro(4,4-F2)][Ac5c][NMeGly(cPent)][NMeD]-Morpholide; lactam N-11)",C (A compound having a KD ratio of 0.1 or more and less than 3 is denoted as C),B (a compound having 3 or more and less than 10 is denoted as B)
0.066,"CCCN1C(=O)CN(C)C(=O)CN(C)C(=O)[C@H]([C@@H](C)CC)NC(=O)[C@H](CC(C)C)N(C)C(=O)C[C@@H](C(=O)N2CCOCC2)N(C)C(=O)[C@H](C2CCCC2)N(C)C(=O)C2(CCC2)NC(=O)[C@@H]2CC(F)(F)CN2C(=O)[C@H](CCc2ccc(C(F)(F)F)c(Cl)c2)NC(=O)CN(C)C(=O)[C@@H]1Cc1ccc(C(F)(F)F)cc1 [PP0207] ([NMeL]I[Sar][Sar][NPrPhe(4-CF3)][Sar][hPhe(3-Cl-4-CF3)][Pro(4,4-F2)][Ac4c][NMeGly(cPent)][NMeD]-Morpholide; lactam N-11)",B (a compound having 3 or more and less than 10 is denoted as B),C (A compound having a KD ratio of 0.1 or more and less than 3 is denoted as C)
0.06,"CCC[C@H]1C(=O)N[C@@H]([C@@H](C)CC)C(=O)N(C)CC(=O)N(C)CC(=O)N(CCC)[C@@H](Cc2ccc(C(F)(F)F)cc2)C(=O)N(C)CC(=O)N[C@@H](CCc2ccc(C(F)(F)F)c(Cl)c2)C(=O)N2CC(F)(F)C[C@H]2C(=O)NC2(CCCC2)C(=O)N(C)[C@@H](C2CCCC2)C(=O)N(C)[C@H](C(=O)N2CCOCC2)CC(=O)N1C [PP0201] ([NMeNva]I[Sar][Sar][NPrPhe(4-CF3)][Sar][hPhe(3-Cl-4-CF3)][Pro(4,4-F2)][Ac5c][NMeGly(cPent)][NMeD]-Morpholide; lactam N-11)",B (a compound having 3 or more and less than 10 is denoted as B),C (A compound having a KD ratio of 0.1 or more and less than 3 is denoted as C)

# — patent US20240158446A1, “CYCLIC COMPOUND HAVING SELECTIVE INHIBITORY ACTION ON KRAS OVER HRAS AND NRAS” (CHUGAI SEIYAKU KABUSHIKI KAISHA, priority 2021, published 2024)
